Laboratory results as given in patent US8778871B2 (Takeda Pharmaceutical Company Limited, priority 2004, dated 2014).
Starred links: 1 amine or outer side, 2 acyl side, 3 side chain; linkers in the order of their positions; H or OH if unused. Non-standard residues stand in square brackets, D forms with d. Residues, ends and D or L forms follow the SMILES beside them. *: point of attachment. X10 = CNC(=N)NCCC[C@H](NC(=O)[C@H](CC(C)C)NCCN*)C(=O)N[C@@H](Cc1ccccc1)C(N)=O; X9 = CC(C)C[C@H](NCCN*)C(=O)N[C@@H](CCCNC(=N)N)C(=O)N[C@@H](Cc1ccccc1)C(N)=O; X11 = NC(=O)C[C@@H](CN([C@@H](Cc1c[nH]c2ccccc12)C(=O)[*:2])[*:1])N[*:3]; Phe(4-F) = N[C@@H](Cc1ccc(F)cc1)C(=O)O; Arg(Me) = CNC(=N)NCCC[C@H](N)C(=O)O; 4Pal = N[C@@H](Cc1ccncc1)C(=O)O; d3Pal = N[C@H](Cc1cccnc1)C(=O)O; Hexanoyl = CCCCCC(=O)*; azaGly = NNC(=O)O

Biological target: T1, hOT7T175 (Homo sapiens, UniProt Q969F8)
T1 construct: expressed in transfected cells
Experiment: Intracellular Ca ion level-increasing activity using FLIPR (180 seconds; specific activity to Metastin (1-54))
Format: cell-based
Settings: hOT7T175/CHO, change in intracellular calcium ion level for 180 seconds, Tables 21-23
Description: In accordance with the method described in JPA 2000-312590, the intracellular Ca ion level-increasing activity was measured using FLIPR. […]
The intracellular Ca ion level-increasing activity of the synthetic peptide in hOT7T175/CHO was determined using FLIPR (Molecular Devices, Inc.).
hOT7T175/CHO was subcultured in DMEM supplemented with 10% dialyzed fetal bovine serum (hereinafter abbreviated as dFBS) and provided for the experiment (hereinafter abbreviated as 10% dFBS/DMEM). The hOT7T175/CHO was suspended in 10% dFBS-DMEM in 15×10^4 cells/ml. The suspension was inoculated on a 96-well plate for FLIPR (Black Plate Clear Bottom, Coster, Inc.) at 200 μl each (3.0×10^4 cells/200 μl), followed by incubation at 37° C. overnight in a 5% CO2 incubator. The cells thus incubated were used (hereinafter simply referred to as the cell plate). Then, 21 ml of HANKS/HBSS (9.8 g of HANKS', 0.35 g of sodium hydrogencarbonate, 20 ml of 1M HEPES; after adjusting the pH to 7.4 with 1N sodium hydroxide, the mixture was subjected to sterilization through a filter), 210 μl of […] Probenecid and 210 μl of fetal bovine serum (FBS) were mixed (HANKS/HBSS-Probenecid-FBS).
Furthermore, 2 vials of Fluo3-AM (50 μg/vial) were dissolved in 21 μL of dimethylsulfoxide and 21 μL of 20% Pluronic acid. The resulting solution was added to and mixed with 10 ml of HANKS/HBSS-Probenecid-FBS described above. After the culture medium was removed, the mixture was dispensed onto the cell plate in 100 μl each/well, followed by incubation at 37° C. for an hour in a 5% CO2 incubator (pigment loading). The peptide was dissolved in dimethylsulfoxide in 1×10^−3 M. The peptide solution was diluted with HANKS'/HBSS containing 2.5 mM Probenecid and 0.2% BSA. The dilution was transferred to a 96-well plate for FLIPR (V-Bottom plate, Coster, Inc.) (hereinafter referred to as a sample plate). After completion of the pigment loading onto the cell plate, the cell plate washed 4 times with wash buffer, which was obtained by adding 2.5 mM Probenecid to HANKS'/HBSS, using a plate washer to leave 100 μL of wash buffer after the washing. The cell plate and the sample plate were set in FLIPR and 0.05 ml of a sample from the sample plate was automatically transferred to the cell plate with the FLIPR device to promote the cell response. A change in intracellular calcium ion level for 180 seconds was measured with passage of time.

T1 sequence (Q969F8 whole entry L364H): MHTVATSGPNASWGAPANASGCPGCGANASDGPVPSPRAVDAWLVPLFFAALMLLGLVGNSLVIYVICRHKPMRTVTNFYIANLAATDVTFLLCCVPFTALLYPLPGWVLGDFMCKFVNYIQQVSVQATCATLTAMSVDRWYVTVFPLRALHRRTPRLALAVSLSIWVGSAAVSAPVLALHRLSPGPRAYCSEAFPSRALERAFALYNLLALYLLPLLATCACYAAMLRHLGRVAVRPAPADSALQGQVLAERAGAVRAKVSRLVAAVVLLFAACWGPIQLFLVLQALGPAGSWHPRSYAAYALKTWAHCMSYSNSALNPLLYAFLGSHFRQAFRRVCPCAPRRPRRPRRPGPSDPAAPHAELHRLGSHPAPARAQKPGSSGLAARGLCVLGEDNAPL

Compound | intracellular Ca ion level-increasing activity [specific activity to Metastin (1-54)]
CCCCCC(=O)N[C@@H](CC(N)=O)C(=O)N[C@@H](CO)C(=O)N[C@@H](Cc1ccccc1)C(=O)NNC(=O)N[C@@H](CC(C)C)C(=O)N[C@@H](CCCNC(=N)NC)C(=O)N[C@@H](Cc1ccccc1)C(N)=O [Compound No. 277, n-Hexanoyl-Asn-Ser-Phe-AzaGly-Leu-Arg(Me)-Phe-NH2] (Hexanoyl-NSF[azaGly]L[Arg(Me)]F-NH2) | 2
CC(C)C[C@H](NCCNC(=O)[C@H](Cc1ccccc1)NC(=O)[C@H](CO)NC(=O)[C@H](CC(N)=O)NC(=O)[C@H](Cc1c[nH]c2ccccc12)NC(=O)[C@H](CC(N)=O)NC(=O)[C@@H](N)Cc1ccc(O)cc1)C(=O)N[C@@H](CCCNC(=N)N)C(=O)N[C@@H](Cc1ccccc1)C(N)=O [Compound No. 261, Tyr-Asn-Trp-Asn-Ser-Phe-GlyΨ(CH2NH)Leu-Arg-Phe-NH2] (H-YNWNSF-X9) | 1
CNC(=N)NCCC[C@H](NC(=O)[C@H](CC(C)C)NC(=O)NNC(=O)[C@H](Cc1ccccc1)NC(=O)[C@H](CO)NC(=O)[C@H](CC(N)=O)NC(=O)[C@H](Cc1c[nH]c2ccccc12)NC(=O)[C@H](CC(N)=O)NC(=O)[C@@H](C)N)C(=O)N[C@@H](Cc1ccccc1)C(N)=O [Compound No. 259, D-Ala-Asn-Trp-Asn-Ser-Phe-AzaGly-Leu-Arg(Me)-Phe-NH2] (H-[dA]NWNSF[azaGly]L[Arg(Me)]F-NH2) | 1
D-Tyr-Pya(4)-Phe-AzaGly-Leu-Arg(Me)-Trp-NH2 [Compound No. 495] | ⅙
Cyclohexanecarbonyl-Phe-AzaGly-Leu-Arg(Me)-Trp-NH2 [Compound No. 439] | 2
CNC(=N)NCCC[C@H](NC(=O)[C@H](CC(C)C)NC(=O)NNC(=O)[C@H](Cc1ccccc1)NC(=O)[C@H](CO)NC(=O)[C@H](CC(N)=O)NC(=O)[C@H](Cc1ccccc1)NC(=O)[C@@H](CC(N)=O)NC(=O)[C@H](N)Cc1ccc(O)cc1)C(=O)N[C@@H](Cc1ccccc1)C(N)=O [Compound No. 257, D-Tyr-D-Asn-Phe-Asn-Ser-Phe-AzaGly-Leu-Arg(Me)-Phe-NH2] (H-[dY][dN]FNSF[azaGly]L[Arg(Me)]F-NH2) | 3
CNC(=N)NCCC[C@H](NC(=O)[C@H](CC(C)C)NC(=O)NNC(=O)[C@H](Cc1ccccc1)NC(=O)[C@H](CO)NC(=O)[C@H](CC(N)=O)NC(=O)[C@@H](NC(=O)[C@@H](CC(N)=O)NC(=O)[C@H](N)Cc1ccc(O)cc1)[C@@H](C)O)C(=O)N[C@@H](Cc1ccc(F)cc1)C(N)=O [Compound No. 316, D-Tyr-D-Asn-Thr-Asn-Ser-Phe-AzaGly-Leu-Arg(Me)-Phe(4F)-NH2] (H-[dY][dN]TNSF[azaGly]L[Arg(Me)][Phe(4-F)]-NH2) | 1
(2S)-2-Benzoyloxy-3-phenylpropionyl-AzaGly-Leu-Arg(Me)-Trp-NH2 [Compound No. 380] | 5
Tos-Phe-AzaGly-Leu-Arg(Me)-Trp-NH2 [Compound No. 368] | ½
2-Hydroxyisobutyryl-Phe-AzaGly-Leu-Arg(Me)-Trp-NH2 [Compound No. 453] | 1
CNC(=N)NCCC[C@H](NC(=O)[C@H](CC(C)C)NC(=O)NNC(=O)[C@H](Cc1ccccc1)NC(=O)[C@H](CO)NC(=O)[C@H](CC(N)=O)NC(=O)[C@H](Cc1ccncc1)NC(=O)[C@@H](CC(N)=O)NC(=O)[C@@H](N)Cc1ccc(O)cc1)C(=O)N[C@@H](Cc1ccccc1)C(N)=O [Compound No. 304, Tyr-D-Asn-Pya(4)-Asn-Ser-Phe-AzaGly-Leu-Arg(Me)-Phe-NH2] (H-Y[dN][4Pal]NSF[azaGly]L[Arg(Me)]F-NH2) | 3
CNC(=N)NCCC[C@H](NC(=O)[C@H](CC(C)C)NC(=O)NNC(=O)[C@H](Cc1ccccc1)NC(=O)[C@H](CO)NC(=O)[C@H](CC(N)=O)NC(=O)[C@H](Cc1ccncc1)NC(=O)[C@H](CC(N)=O)NC(=O)[C@H](N)Cc1ccc(O)cc1)C(=O)N[C@@H](Cc1ccccc1)C(N)=O [Compound No. 286, D-Tyr-Asn-Pya(4)-Asn-Ser-Phe-AzaGly-Leu-Arg(Me)-Phe-NH2] (H-[dY]N[4Pal]NSF[azaGly]L[Arg(Me)]F-NH2) | 2
(2R)-2-Benzoyloxy-3-phenylpropionyl-AzaGly-Leu-Arg(Me)-Trp-NH2 [Compound No. 412] | ⅕
CC(C)C[C@H](NC(=O)CNC(=O)[C@H](Cc1ccccc1)NC(=O)[C@H](CO)NC(=O)[C@H](CC(N)=O)NC(=O)[C@H](Cc1c[nH]c2ccccc12)NC[C@H](CC(N)=O)NC(=O)[C@@H](N)Cc1ccc(O)cc1)C(=O)N[C@@H](CCCNC(=N)N)C(=O)N[C@@H](Cc1ccccc1)C(N)=O [Compound No. 295] (H-[X11](Tyr)NSFGLRF-NH2) | 1
D-Tyr-D-Pya(4)-Asn-Ser-Phe-AzaGly-Leu-Har(Me)-Phe-NH2 [Compound No. 489] | ½
3-(3-Pyridyl)propionyl-Phe-AzaGly-Leu-Arg(Me)-Phe-NH2 [Compound No. 340] | ⅕
CNC(=N)NCCC[C@H](NC(=O)[C@H](CC(C)C)NC(=O)NNC(=O)[C@H](Cc1ccccc1)NC(=O)[C@H](CO)NC(=O)[C@H](CC(N)=O)NC(=O)[C@H](Cc1c[nH]c2ccccc12)NC(C)=O)C(=O)N[C@@H](Cc1ccccc1)C(N)=O [Compound No. 272, Acetyl-Trp-Asn-Ser-Phe-AzaGly-Leu-Arg(Me)-Phe-NH2] (Ac-WNSF[azaGly]L[Arg(Me)]F-NH2) | 2
6-Hydroxynicotinoyl-Phe-AzaGly-Leu-Arg(Me)-Trp-NH2 [Compound No. 462] | 1
CNC(=N)NCCC[C@H](NC(=O)[C@H](CC(C)C)NCCNC(=O)[C@H](Cc1ccccc1)NC(=O)[C@H](CO)NC(=O)[C@H](CC(N)=O)NC(=O)[C@H](Cc1c[nH]c2ccccc12)NC(=O)[C@H](CC(N)=O)NC(=O)[C@H](N)Cc1ccc(O)cc1)C(=O)N[C@@H](Cc1ccccc1)C(N)=O [Compound No. 307, D-Tyr-Asn-Trp-Asn-Ser-Phe-GlyΨ(CH2NH)Leu-Arg(Me)-Phe-NH2] (H-[dY]NWNSF-X10) | 1
4-Pyridinecarbonyl-Phe-AzaGly-Leu-Arg(Me)-Phe-NH2 [Compound No. 471] | 1
CNC(=N)NCCC[C@H](NC(=O)[C@H](CC(C)C)NC(=O)NNC(=O)[C@H](Cc1ccccc1)NC(=O)[C@H](CO)NC(=O)[C@H](CC(N)=O)NC(=O)[C@H](Cc1c[nH]c2ccccc12)NC(=O)[C@H](CC(N)=O)NC(=O)[C@H](N)Cc1cccnc1)C(=O)N[C@@H](Cc1ccccc1)C(N)=O [Compound No. 258, D-Pya(3)-Asn-Trp-Asn-Ser-Phe-AzaGly-Leu-Arg(Me)-Phe-NH2] (H-[d3Pal]NWNSF[azaGly]L[Arg(Me)]F-NH2) | 2
Ac-F[azaGly]L[Arg(Me)]F-NH2 [Compound No. 346] | 2
